Measured values: article PMC6050590 (Nature, 2017)

Legend:
[1] = system: H3K27Ac in PC-3 cells; assay: High content microscopy of H3K27Ac in PC-3 cells; type: cell-based
[2] = system: PSA expression in 22Rv1 cells; assay: qRT-PCR of PSA expression in androgen depleted 22Rv1 cells; type: cell-based; conditions: absence of androgens, 7 h and 24 h
[3] = system: 22Rv1 cells; assay: Proliferation of androgen depleted 22Rv1 cells; type: cell-based; conditions: absence of androgens
[4] = biological target: p300-BHC (bromodomain-HAT-C/H3) domain (Homo sapiens, UniProt Q09472); conditions: toward p300 and CBP
Chain of p300-BHC (bromodomain-HAT-C/H3) domain (Q09472 1049-1809 limits assumed): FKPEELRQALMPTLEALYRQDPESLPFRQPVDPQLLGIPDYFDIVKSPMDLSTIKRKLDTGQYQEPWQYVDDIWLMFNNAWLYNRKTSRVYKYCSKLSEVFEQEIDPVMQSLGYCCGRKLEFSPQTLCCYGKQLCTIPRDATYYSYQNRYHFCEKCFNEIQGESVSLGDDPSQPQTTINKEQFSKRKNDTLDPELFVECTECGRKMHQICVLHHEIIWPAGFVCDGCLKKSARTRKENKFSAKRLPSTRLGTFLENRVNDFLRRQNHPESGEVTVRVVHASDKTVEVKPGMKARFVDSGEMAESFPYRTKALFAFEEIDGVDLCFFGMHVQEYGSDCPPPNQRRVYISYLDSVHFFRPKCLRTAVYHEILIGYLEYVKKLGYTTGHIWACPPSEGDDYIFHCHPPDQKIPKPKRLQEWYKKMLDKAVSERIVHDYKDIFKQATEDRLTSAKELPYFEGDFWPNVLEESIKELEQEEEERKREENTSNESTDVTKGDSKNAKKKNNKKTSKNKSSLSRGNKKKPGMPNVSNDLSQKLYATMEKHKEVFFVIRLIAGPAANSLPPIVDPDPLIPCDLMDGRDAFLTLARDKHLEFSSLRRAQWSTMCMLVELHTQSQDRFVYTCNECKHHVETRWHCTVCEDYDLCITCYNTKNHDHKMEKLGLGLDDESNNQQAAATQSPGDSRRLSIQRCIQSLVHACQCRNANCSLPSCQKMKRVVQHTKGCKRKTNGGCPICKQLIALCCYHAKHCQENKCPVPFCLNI

[5] = biological target: p300-HAT (Homo sapiens, UniProt Q09472); assay: Surface plasmon resonance binding to p300-HAT; conditions: SPR
Chain of p300-HAT (Q09472 1287-1663 limits assumed): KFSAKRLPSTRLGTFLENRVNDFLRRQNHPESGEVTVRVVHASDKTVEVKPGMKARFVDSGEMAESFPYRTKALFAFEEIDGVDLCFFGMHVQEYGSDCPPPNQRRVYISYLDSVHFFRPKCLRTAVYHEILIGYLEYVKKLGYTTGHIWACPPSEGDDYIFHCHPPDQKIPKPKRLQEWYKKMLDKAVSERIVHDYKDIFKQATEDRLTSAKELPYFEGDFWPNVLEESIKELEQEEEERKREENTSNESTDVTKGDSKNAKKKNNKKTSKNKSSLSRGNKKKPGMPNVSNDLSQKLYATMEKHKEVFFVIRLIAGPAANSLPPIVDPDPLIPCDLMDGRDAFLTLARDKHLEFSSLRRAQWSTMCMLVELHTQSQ

[6] = system: c-Myc expression in 22Rv1 cells; assay: c-Myc expression in androgen depleted 22Rv1 cells; type: cell-based
[7] = system: DHT responsive genes in 22Rv1 cells; type: cell-based; conditions: androgen depleted 22Rv1 cells
[8] = system: H3K27Ac and AR occupancy at the PSA enhancer, LnCaP-FGC cells; assay: ChIP at the PSA enhancer in DHT-stimulated LnCaP-FGC cells; type: cell-based; conditions: DHT 6 h
[9] = biological target: T1, p300-BHC (Homo sapiens, UniProt Q09472); assay: Thermal shift assay with p300-BHC
T1 sequence (Q09472 1049-1809 limits assumed): as the sequence (Q09472 1049-1809 limits assumed) above

[10] = system: PSA expression in LnCaP-FGC cells; assay: qRT-PCR of DHT-stimulated PSA expression in LnCaP-FGC cells; type: cell-based; conditions: 7 h and 24 h
[11] = system: AR+ prostate cancer cell lines; assay: Cell proliferation of prostate cancer cell lines
[12] = biological target: MYST4 (Homo sapiens, UniProt Q8WYB5); assay: HAT family selectivity, MYST4; conditions: at 10 µM
[13] = biological target: MYST3 (Homo sapiens, UniProt Q92794); assay: HAT family selectivity, MYST3; conditions: at 10 µM
[14] = Brain exposure; conditions: in vivo
[15] = biological target: serotonin transporter (Homo sapiens, UniProt P31645); assay: Non-epigenetic target panel, serotonin transporter binding; conditions: at 10 µM
Chain of serotonin transporter (P31645 whole entry): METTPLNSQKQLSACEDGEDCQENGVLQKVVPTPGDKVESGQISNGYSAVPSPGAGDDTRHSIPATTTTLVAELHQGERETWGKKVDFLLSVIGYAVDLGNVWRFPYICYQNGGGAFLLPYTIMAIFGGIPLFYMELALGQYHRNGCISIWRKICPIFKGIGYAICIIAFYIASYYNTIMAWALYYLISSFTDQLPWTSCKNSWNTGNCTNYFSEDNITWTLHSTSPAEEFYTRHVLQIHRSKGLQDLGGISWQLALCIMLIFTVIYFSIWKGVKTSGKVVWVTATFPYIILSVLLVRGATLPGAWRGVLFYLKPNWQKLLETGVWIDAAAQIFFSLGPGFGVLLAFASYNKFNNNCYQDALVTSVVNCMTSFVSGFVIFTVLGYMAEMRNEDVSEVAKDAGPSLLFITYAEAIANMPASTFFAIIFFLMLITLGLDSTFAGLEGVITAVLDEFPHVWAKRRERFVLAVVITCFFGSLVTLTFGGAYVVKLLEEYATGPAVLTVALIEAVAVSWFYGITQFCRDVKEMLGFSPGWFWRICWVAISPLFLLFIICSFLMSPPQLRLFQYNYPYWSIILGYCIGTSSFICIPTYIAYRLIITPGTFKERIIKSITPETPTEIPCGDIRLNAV

[16] = biological target: HAT1 (Homo sapiens, UniProt O14929); assay: HAT family selectivity, HAT1; conditions: at 10 µM
Chain of HAT1 (O14929 whole entry): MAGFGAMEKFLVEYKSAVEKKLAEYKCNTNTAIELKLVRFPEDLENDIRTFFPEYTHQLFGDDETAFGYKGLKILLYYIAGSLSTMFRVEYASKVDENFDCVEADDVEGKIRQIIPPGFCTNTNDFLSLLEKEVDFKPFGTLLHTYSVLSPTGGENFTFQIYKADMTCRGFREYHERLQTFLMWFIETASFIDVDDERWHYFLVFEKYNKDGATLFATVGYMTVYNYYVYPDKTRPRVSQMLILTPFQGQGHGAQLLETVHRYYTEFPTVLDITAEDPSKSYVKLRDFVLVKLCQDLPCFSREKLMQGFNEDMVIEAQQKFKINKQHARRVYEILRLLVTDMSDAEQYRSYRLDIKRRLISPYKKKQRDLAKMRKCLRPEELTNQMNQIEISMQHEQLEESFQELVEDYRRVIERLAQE

[17] = biological target: PCAF (Homo sapiens, UniProt Q92831); assay: HAT family selectivity, PCAF; conditions: at 10 µM
Chain of PCAF (Q92831 whole entry): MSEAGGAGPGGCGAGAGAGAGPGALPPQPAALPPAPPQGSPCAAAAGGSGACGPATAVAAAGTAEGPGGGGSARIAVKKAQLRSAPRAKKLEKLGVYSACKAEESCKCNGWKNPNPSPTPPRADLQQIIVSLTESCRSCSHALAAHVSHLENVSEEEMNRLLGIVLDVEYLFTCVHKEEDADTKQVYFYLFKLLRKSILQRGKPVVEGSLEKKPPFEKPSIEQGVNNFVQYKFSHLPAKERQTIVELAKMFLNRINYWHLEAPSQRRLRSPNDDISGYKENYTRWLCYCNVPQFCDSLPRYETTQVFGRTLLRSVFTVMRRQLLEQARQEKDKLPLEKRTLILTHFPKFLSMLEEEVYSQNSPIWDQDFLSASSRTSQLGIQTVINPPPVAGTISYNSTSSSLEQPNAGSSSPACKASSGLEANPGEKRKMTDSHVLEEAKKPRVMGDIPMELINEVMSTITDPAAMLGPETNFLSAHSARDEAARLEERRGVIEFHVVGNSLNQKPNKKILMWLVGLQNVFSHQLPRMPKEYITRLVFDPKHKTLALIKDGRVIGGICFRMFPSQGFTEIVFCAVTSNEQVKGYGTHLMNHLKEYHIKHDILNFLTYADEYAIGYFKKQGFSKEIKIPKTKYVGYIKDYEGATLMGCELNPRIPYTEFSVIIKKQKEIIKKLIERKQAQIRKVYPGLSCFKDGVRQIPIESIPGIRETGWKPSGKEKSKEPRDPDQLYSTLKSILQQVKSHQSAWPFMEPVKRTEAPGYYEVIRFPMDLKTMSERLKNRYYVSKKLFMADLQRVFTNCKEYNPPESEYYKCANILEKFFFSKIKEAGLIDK

[18] = biological target: GCN5L2 (Homo sapiens, UniProt Q92830); assay: HAT family selectivity, GCN5L2; conditions: at 10 µM
Chain of GCN5L2 (Q92830 whole entry): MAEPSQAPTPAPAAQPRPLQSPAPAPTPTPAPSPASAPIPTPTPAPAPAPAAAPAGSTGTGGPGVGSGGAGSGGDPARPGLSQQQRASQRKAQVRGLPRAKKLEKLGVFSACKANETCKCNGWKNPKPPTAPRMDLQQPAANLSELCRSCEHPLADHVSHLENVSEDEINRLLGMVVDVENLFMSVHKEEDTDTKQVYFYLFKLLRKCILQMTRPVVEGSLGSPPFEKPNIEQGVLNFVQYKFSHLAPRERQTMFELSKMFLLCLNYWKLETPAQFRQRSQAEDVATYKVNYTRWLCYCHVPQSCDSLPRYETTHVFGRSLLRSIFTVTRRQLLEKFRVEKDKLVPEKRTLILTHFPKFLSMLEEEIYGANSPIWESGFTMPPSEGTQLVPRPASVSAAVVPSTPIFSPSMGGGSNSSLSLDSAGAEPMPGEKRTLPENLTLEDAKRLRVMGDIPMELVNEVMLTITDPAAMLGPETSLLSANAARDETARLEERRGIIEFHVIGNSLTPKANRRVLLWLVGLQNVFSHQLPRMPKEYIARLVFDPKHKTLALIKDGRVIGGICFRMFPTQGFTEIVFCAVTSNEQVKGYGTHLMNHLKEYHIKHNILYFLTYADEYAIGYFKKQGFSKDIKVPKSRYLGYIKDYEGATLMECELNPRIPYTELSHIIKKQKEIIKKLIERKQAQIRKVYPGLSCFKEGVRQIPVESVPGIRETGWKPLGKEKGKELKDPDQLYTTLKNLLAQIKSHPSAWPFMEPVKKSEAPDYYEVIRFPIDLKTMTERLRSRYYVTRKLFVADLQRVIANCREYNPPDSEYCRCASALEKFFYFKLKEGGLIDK

[19] = biological target: dopamine transporter (Homo sapiens, UniProt Q01959); assay: Non-epigenetic target panel, dopamine transporter binding; conditions: at 10 µM
Chain of dopamine transporter (Q01959 whole entry): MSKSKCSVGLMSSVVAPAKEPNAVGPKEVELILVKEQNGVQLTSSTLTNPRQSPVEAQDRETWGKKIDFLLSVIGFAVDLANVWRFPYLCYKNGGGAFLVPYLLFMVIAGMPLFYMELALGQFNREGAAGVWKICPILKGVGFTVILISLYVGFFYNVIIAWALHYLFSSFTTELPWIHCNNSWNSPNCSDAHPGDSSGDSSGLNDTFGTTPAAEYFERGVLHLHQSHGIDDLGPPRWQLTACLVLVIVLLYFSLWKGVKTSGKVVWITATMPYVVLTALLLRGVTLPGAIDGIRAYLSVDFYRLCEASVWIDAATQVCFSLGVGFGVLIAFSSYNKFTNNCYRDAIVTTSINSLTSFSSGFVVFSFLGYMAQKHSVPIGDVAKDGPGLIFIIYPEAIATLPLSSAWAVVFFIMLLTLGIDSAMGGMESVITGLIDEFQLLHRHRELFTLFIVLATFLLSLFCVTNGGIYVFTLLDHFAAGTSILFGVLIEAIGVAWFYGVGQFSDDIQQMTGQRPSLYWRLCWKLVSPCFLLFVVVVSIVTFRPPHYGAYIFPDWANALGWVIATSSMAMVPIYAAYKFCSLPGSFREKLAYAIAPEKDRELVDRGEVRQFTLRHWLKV

[20] = system: H3K9Ac in PC-3 cells; assay: High content microscopy of H3K9Ac in PC-3 cells; conditions: Homo sapiens, PC-3, 3 h, read-out: EC50, decrease of H3K9Ac
[21] = biological target: TIP60 (Homo sapiens, UniProt Q92993); assay: HAT family selectivity, TIP60; conditions: at 10 µM
Chain of TIP60 (Q92993 whole entry): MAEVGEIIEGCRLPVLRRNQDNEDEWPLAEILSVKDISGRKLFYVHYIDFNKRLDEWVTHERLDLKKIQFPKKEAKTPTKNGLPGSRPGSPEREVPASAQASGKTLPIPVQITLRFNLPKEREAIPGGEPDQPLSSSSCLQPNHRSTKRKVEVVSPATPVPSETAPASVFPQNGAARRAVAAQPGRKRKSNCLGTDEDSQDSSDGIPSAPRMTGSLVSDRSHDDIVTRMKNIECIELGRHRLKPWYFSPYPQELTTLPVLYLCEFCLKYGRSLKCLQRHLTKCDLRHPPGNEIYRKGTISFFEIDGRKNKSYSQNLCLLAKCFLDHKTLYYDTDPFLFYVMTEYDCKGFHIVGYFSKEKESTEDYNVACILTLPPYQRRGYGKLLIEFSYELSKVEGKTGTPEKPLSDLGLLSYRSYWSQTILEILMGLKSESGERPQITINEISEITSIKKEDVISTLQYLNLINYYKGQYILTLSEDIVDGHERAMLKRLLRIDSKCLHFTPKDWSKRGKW

[22] = system: LuCaP-77 CR xenograft; assay: LuCaP-77 CR castration resistant prostate cancer xenograft model; type: in vivo, SCID male mice; conditions: 7 days dosing, 3 h post-dosing
[23] = biological target: T1, p300-BHC; assay: AlphaLISA-based peptide substrate binding assay

In the case of `CNC(=O)Nc1ccc2c(c1)[C@@]1(CC2)OC(=O)N(CC(=O)N(Cc2ccc(F)cc2)[C@@H](C)C(F)(F)F)C1=O` [Compound A-486], the “effect on H3K27Ac, in words” value [1] is reported as “inactive”, the PSA expression [2] is reported as “inactive” and the inhibition of proliferation [3] is reported as “inactive”. The “fold less potent than A-485” value [4] was ~ 1000 fold and the “fold weaker binding than A-485” value [5] was ~ 1,000 fold.

For `CC1=NN(c2ccc(C(=O)O)cc2)C(=O)/C1=C\c1ccc(-c2cc(C)c(C)cc2[N+](=O)[O-])o1` [Compound C646, reference compound], the “effect on H3K27Ac, in words” value [1] was “only modest inhibition”.

In the case of `CNC(=O)c1ccc(N2C(=S)N(c3ccc(C#N)c(C(F)(F)F)c3)C(=O)C2(C)C)cc1F` [enzalutamide, reference compound], the PSA expression [2] is reported as “inactive”, the inhibition of proliferation [3] is reported as “inactive” and the c-Myc expression [6] is reported as “no effect”. The “effect on DHT responsive genes, in words” value [7] was “inactive”, the “AR occupancy at the PSA enhancer” value [8] was “decreased AR occupancy” and the “H3K27Ac at the PSA enhancer” value [8] was “reduced H3K27Ac binding”.

With `CC(=O)N[C@@H](CCCCNC(=O)CSCCNC(=O)CCNC(=O)[C@H](O)C(C)(C)COP(=O)(O)OP(=O)(O)OC[C@H]1O[C@@H](n2cnc3c(N)ncnc32)[C@H](O)[C@@H]1OP(=O)(O)O)C(N)=O` [Lys-CoA] the “increase of thermostability of p300-BHC” value [9] was 5.8 °C.

For `CNC(=O)Nc1ccc2c(c1)CC[C@@]21OC(=O)N(CC(=O)N(Cc2ccc(F)cc2)[C@@H](C)C(F)(F)F)C1=O` [Compound A-485], the “DHT-stimulated PSA expression” value [10] was “attenuated DHT-stimulated PSA expression more potently than the AR antagonist enzalutamide”, the inhibition of proliferation [11] was “potent inhibition of proliferation” and the “inhibition of MYST4 activity” value [12] was “did not inhibit”. For the same compound, the PSA expression [2] was “decreased PSA expression”, the “inhibition of MYST3 activity” value [13] was “did not inhibit” and the inhibition of proliferation [3] was “inhibited proliferation”. The c-Myc expression [6] was “robustly decreased”, the brain exposure [14] was “does not achieve significant brain exposure” and the “binding to serotonin transporter” value [15] was greater than 90%. The “inhibition of HAT1 activity” value [16] was “did not inhibit”, the “inhibition of PCAF activity” value [17] was “did not inhibit” and the “inhibition of GCN5L2 activity” value [18] was “did not inhibit”. The “binding to dopamine transporter” value [19] was greater than 90%, the EC50 [20] was greater than 10 µM and the “H3K27Ac at the PSA enhancer” value [8] was “reduced H3K27Ac binding”. The “inhibition of TIP60 activity” value [21] was “did not inhibit”, the “tumor mRNA levels of SLC45A3 and c-Myc” value [22] was “decrease” and the “competition with peptide substrate binding” value [23] was “not competitive with the peptide substrate”.
